In ChEMBL document CHEMBL4043279 (Bioorg Med Chem Lett, 2017):

Assays:
PC-3 = assay: Antiproliferative activity against human PC3 cells treated for 24 hrs measured after 72 hrs by MTT assay; type: functional, cell-based
HepG2 = assay: Antiproliferative activity against human HepG2 cells treated for 24 hrs measured after 72 hrs by MTT assay; type: functional, cell-based
THP-1 = assay: Antiproliferative activity against human THP1 cells treated for 24 hrs measured after 72 hrs by MTT assay; type: functional, cell-based
HL-60 = assay: Antiproliferative activity against human HL60 cells treated for 24 hrs measured after 72 hrs by MTT assay; type: functional, cell-based
PBMC = assay: Antiproliferative activity against human PBMC treated for 24 hrs measured after 72 hrs by MTT assay; type: cell-based

| Compound | IC50 (PC-3) | IC50 (HepG2) | IC50 (THP-1) | IC50 (HL-60) | IC50 (PBMC) |
| --- | --- | --- | --- | --- | --- |
| O=C(O)CCCc1ccc(N(CCCl)CCCl)cc1 [CHLORAMBUCIL] | 42.1 µM | > 100 µM | 5.3 µM | 12.9 µM | > 200 µM |
| CN1c2ccccc2C(=O)N2CCc3c(n(CCCO)c4ccccc34)C21 (stereo not drawn) | 27.3 µM | > 100 µM | 8.89 µM | 6.03 µM | > 200 µM |
| COC(=O)[C@H](Cc1ccc(N(CCCl)CCCl)cc1)NC(=O)CCC(=O)OCCCCCCn1c2c(c3ccccc31)CCN1C(=O)c3ccccc3N(C)C21 (stereo partly drawn) | > 100 µM | > 100 µM | 4.24 µM | 2.84 µM | > 200 µM |
| CN1c2ccccc2C(=O)N2CCc3c(n(CCCOCCCO)c4ccccc34)C21 (stereo not drawn) | 19.9 µM | > 100 µM | 8.42 µM | 5.31 µM | > 200 µM |
| O=c1[nH]cc(F)c(=O)[nH]1 [FLUOROURACIL] | 23.9 µM |  | 4.87 µM | 3.69 µM |  |
| CN1c2ccccc2C(=O)N2CCc3c(n(CCO)c4ccccc34)C21 (stereo not drawn) | 12.3 µM | > 100 µM | 1.64 µM | 7.1 µM | > 200 µM |
| CN1c2ccccc2C(=O)N2CCc3c(n(CCCCCCOC(=O)c4ccc(N(CCCl)CCCl)cc4)c4ccccc34)C21 (stereo not drawn) | > 100 µM | > 100 µM | 3.92 µM | 23.5 µM | > 200 µM |
| CN1c2ccccc2C(=O)N2CCc3c(n(CCCCCCOC(=O)CCCc4ccc(N(CCCl)CCCl)cc4)c4ccccc34)C21 (stereo not drawn) | > 100 µM | > 100 µM | 10.5 µM | 17.5 µM | > 200 µM |
| CN1c2ccccc2C(=O)N2CCc3c(n(CCCOCCCOC(=O)CCCc4ccc(N(CCCl)CCCl)cc4)c4ccccc34)C21 (stereo not drawn) | 27.6 µM | > 100 µM | 5.31 µM | 1.29 µM | > 200 µM |
| CN1c2ccccc2C(=O)N2CCc3c(n(CCCOC(=O)CCCc4ccc(N(CCCl)CCCl)cc4)c4ccccc34)C21 (stereo not drawn) | > 100 µM | > 100 µM | 5.68 µM | 4.3 µM | > 200 µM |
